# Results reported in article PMC12903969, “Discovery of a Novel and Potent Kir4.1 Inhibitor as a Safe and Rapid‐Onset Antidepressant Agent in Mice” (Advanced Science, 2025).
# “And” between values parts separate entries of the source, which are not always exact repeats. Equal entries are not always repeated.
# Assays:
# Kir4.2 = molecular target: T1, Kir4.2 (Homo sapiens, UniProt Q99712); experiment: Whole-cell patch clamp, Kir4.2; format: cell-based
# T1 construct: host or cells: CHO-K1
# T1 sequence (Q99712 1-375): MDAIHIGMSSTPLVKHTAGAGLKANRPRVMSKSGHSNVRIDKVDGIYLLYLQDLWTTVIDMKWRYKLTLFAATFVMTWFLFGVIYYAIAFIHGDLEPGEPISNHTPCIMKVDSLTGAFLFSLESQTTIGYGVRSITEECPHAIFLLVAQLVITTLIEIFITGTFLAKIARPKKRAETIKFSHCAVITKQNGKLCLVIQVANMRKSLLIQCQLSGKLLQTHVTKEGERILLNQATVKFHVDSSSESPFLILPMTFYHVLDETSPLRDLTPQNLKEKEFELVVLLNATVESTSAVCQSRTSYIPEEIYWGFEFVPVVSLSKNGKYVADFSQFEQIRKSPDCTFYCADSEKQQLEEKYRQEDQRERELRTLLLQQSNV
# Protocol: (§1) Plasmids encoding WT human potassium channels Kir1.1, Kir2.1, Kir2.2, Kir4.1, and Kir4.2 were obtained from the Beijing Genomics Institute. All point mutations were constructed using the QuickChange II Site‐Directed Mutagenesis Kit (Stratagene) and subsequently verified by sequencing.
# (§2) CHO‐K1 cells were maintained in DMEM/F12 growth medium containing 10% fetal bovine serum. Plasmids encoding the target genes (3600 ng) and enhanced green fluorescent protein (400 ng) were cotransfected into cells using Lipofectamine 2000 (Invitrogen) in accordance with the manufacturer's instructions. Cells were seeded onto poly‐d‐lysine (PDL)‐coated glass coverslips 1 h prior to electrophysiological recordings. All cells were cultured under standard conditions of 5% CO2 at 37 °C.
# Whole‐cell patch‐clamp recordings were obtained either in transiently transfected CHO‐K1 cells or in primary cultured astrocytes at room temperature using standard patch‐clamp techniques with an Axopatch‐700B amplifier (Axon Instruments). The signals were filtered at 2 kHz and sampled at 20 kHz using the Digidata 1440A interface (Axon Instruments). The resistance of borosilicate glass pipettes was typically 2–4 MΩ when filled with the internal solution. Drug application was facilitated using a BPS perfusion system (ALA Scientific Instruments). Macroscopic currents generated by expressed potassium channels were recorded under the voltage‐clamp conditions with an internal pipette solution composed of (in mM): 140 KCl, 5 NaCl, 1 CaCl2, 1 MgCl2, 10 HEPES, and 10 EGTA, pH 7.2 adjusted with KOH. The external solution contained (in mM): 140 NaCl, 5 KCl, 2 CaCl2, 1 MgCl2, 10 glucose, and 10 HEPES, pH 7.4 adjusted with NaOH. Currents were elicited with a hyperpolarized voltage at −120 mV from the holding potential of −80 mV, followed by a ramp voltage depolarizing to +50 mV. Astrocytic resting membrane potentials were recorded under current‐clamp conditions (I = 0 pA) using standard internal and external solutions, determined immediately after achieving whole‐cell mode.
# Kir4.1 T155A = molecular target: T2, Kir4.1 T155A (Homo sapiens, UniProt P78508, T155A); experiment: Whole-cell patch clamp, Kir4.1 point mutant T155A; format: cell-based; conditions: JX3212 3 µM (Fig 2D)
# T2 construct: expressed in transfected cells; host or cells: CHO-K1
# Protocol: as §1
# as §2, with “All cells were cultured under standard conditions of 5% CO2 at 37 °C.” left out
# Whole‐cell patch‐clamp recordings were obtained either in transiently transfected CHO‐K1 cells or in primary cultured astrocytes at room temperature using standard patch‐clamp techniques with an Axopatch‐700B amplifier (Axon Instruments). […] Macroscopic currents generated by expressed potassium channels were recorded under the voltage‐clamp conditions with an internal pipette solution composed of (in mM): 140 KCl, 5 NaCl, 1 CaCl2, 1 MgCl2, 10 HEPES, and 10 EGTA, pH 7.2 adjusted with KOH. […] Astrocytic resting membrane potentials were recorded under current‐clamp conditions (I = 0 pA) using standard internal and external solutions, determined immediately after achieving whole‐cell mode.
# Kir4.1 cKO mice = experiment: NSFT in astrocyte-specific Kir4.1 cKO mice; format: in vivo; conditions: 10 mg kg−1 i.p.
# Source text: Male C57BL/6J mice (6–10 weeks old) and male CD‐1 mice (4–6 months old) were purchased from Shanghai Shengchang Biotechnology Co., Ltd. Kcnj10 ^flox/flox mice were generated by the Cyagen Company (Suzhou, China). The Cas9 protein, two gRNAs (gRNA‐A1: […], gRNA‐A2: […]) and a donor vector containing two loxP sequences flanking exon 2 of mouse Kcnj10 were co‐injected into fertilized eggs. The embryos were transferred to recipient female mice to obtain F0 mice. The genotype was confirmed by PCR using two pairs of primers (F1: 5’‐[…]‐3’, R1: 5’‐[…]‐3’; F2: 5’‐[…]‐3’, R2: 5’‐[…]‐3’) and sequencing. The F0 founder mice were mated with C57BL/6J mice to produce heterozygous F1 offspring. Subsequent intercrosses of F1 heterozygous mice ultimately produced F2 homozygous mice with the Kcnj10 ^flox/flox genotype. Tamoxifen‐induced conditional transgenic mice with Kir4.1 deletion in astrocytes were generated by crossing Aldh1l1‐Cre/ERT2 mice with homozygous Kcnj10 ^flox/flox mice.^[ [32] ^] […]
# The mice were individually housed in new cages and deprived of food for 24 h. […] The latency to start chewing food was recorded within 5 min. Immediately thereafter, the mice were placed back in their home cage with pre‐measured food, and the amount consumed in the next 5 min was used as a baseline to account for appetite changes that might affect the outcome.
# mice [1] = experiment: Novel object recognition test (NOR); format: in vivo; conditions: chronic 10 mg kg−1 per day
# Protocol: This test was designed to assess memory in rodents. The mice were individually exposed to familiar and novel objects. The test consists of three phases: habituation, training, and retention. During habituation, each animal freely traversed an empty cubic arena (≈40 cm per side) for 5 min, then was returned to its home cage. In the subsequent training phase, two identical rectangular objects were fixed 10 cm from opposite walls, and the mouse, introduced with its snout directed toward the center of the distal wall, was allowed to investigate the objects for 5 min. One hour later, in the retention phase, one of the familiar objects was exchanged for a geometrically distinct but comparably sized novel object, and exploration was recorded for 5 min. The positions of familiar and novel objects were systematically randomized across trials to prevent spatial bias. Object exploration was quantified as the duration of direct nose/mouth orientation toward objects within ≤ 2 cm, excluding instances of turning away or sitting on objects. Recognition memory was assessed using the discrimination ratio, calculated as N/(N + F) × 100%, where N represents the exploration time of the novel object and F denotes the exploration time of the familiar object.
# mice [2] = experiment: Y-maze; format: in vivo; conditions: chronic 10 mg kg−1 per day
# Protocol: This test was designed to evaluate spatial working memory. Briefly, mice were individually placed in a symmetrical Y‐maze and allowed to explore for 8 min. Entries were counted only when both hind paws crossed the arm threshold. Correct spatial alternation was defined as an entry into all three arms in an uninterrupted sequence (e.g., ABC, BCA or CAB each representing one alternation). The alternation percentage was derived as: [correct alternations/(total entries–2)] × 100%. After each session, the walls and floor of the maze were wiped with 75% ethanol and allowed to dry before the next animal was tested.
# T2 sequence (P78508 whole entry T155A): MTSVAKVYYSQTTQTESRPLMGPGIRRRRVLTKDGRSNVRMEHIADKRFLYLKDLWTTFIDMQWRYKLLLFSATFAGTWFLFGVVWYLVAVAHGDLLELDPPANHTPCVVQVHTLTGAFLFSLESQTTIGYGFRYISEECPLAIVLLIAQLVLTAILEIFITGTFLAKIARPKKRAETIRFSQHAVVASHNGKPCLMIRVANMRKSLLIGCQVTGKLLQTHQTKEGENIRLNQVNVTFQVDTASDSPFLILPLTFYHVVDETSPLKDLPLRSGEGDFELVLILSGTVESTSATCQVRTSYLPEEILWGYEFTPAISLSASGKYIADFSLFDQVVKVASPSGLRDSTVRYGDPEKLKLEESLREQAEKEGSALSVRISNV
smiles,measurement,setting,value
"c1ccc2c(c1)oc1ccc(Nc3ccnc(NCCCN4CCOCC4)n3)cc12 [JX3212, N^4-(dibenzo[b,d]furan-2-yl)-N^2-(3-morpholinopropyl)pyrimidine-2,4-diamine]",Kir4.2 blockade,"Kir4.2; 3 µM, mean ± SEM",86.57 ± 10.51%
same,"Kir isoforms: Kir4.2 inhibition, single recordings",Kir4.2; JX3212 3 µM (Fig 2A),93.8526 and 74.5275
same,inhibition at 3 µM,"Kir4.2; JX3212 3 µM (Fig 2A), read-out: Kir isoforms: Kir4.2 inhibition, single recordings",91.3%
same,"Mutation: T155A inhibition, single recordings",Kir4.1 T155A,94.2403 and 81.3915 and 95.4304
same,inhibition at 3 µM,"Kir4.1 T155A; read-out: Mutation: T155A inhibition, single recordings",94.3%
same,NSFT latency in Kir4.1 cKO mice vs vehicle (in words),Kir4.1 cKO mice,comparable latencies
same,NOR discrimination ratio vs vehicle (in words),mice [1],showed no effects
same,Y-maze alternation percentage vs vehicle (in words),mice [2],showed no effects
